Tests used:
[1] = system: model of neuropathic pain in rats; test: Model of neuropathic pain (sciatic nerve ligation), threshold of pain sensitivity by dolorimeter; type: in vivo, male Wistar rats; settings: for Changes in the threshold of pain perception, regarding healthy limb: damaged vs healthy limb before administration (baseline); for Threshold of pain sensitivity, damaged limb / Threshold of pain sensitivity, healthy limb: day 14 after ligation, before administration (baseline), M±m, n=10; for Pain perception threshold changes, regarding pathology before administration of compounds / Threshold of pain sensitivity 2 hours after compounds administration: 2 hours; for Threshold of pain sensitivity 2 hours after compounds administration: damaged limb
Procedure: An evaluation of the antinociceptive action of the test compound (1) on a model of neuropathic pain was carried out on 50 male Wistar rats weighing 270-310 g. The model of neuropathic pain was reproduced by ligation of the sciatic nerve at the level of the upper third of the thigh at the level of the popliteal fossa higher than the site of its trifurcation by N. tibialis, N. peroneus and N. suralis (see Mironov A. N. et al. Guidelines for conducting preclinical studies of drugs. Part one.—Moscow 2012. p. 197-219). The development of the pathological process lasted 14 days. The degree of hyperalgesia was determined using a dolorimeter (Dolorimeter Baseline, USA) by determining the threshold of pain sensitivity (TPS)—the minimum pressure on the lower surface of the rat's foot (g/mm^2), which caused pain in the animal (vocalization and/or withdrawal of the foot). Each animal was given 5 attempts; the threshold value was taken with such a pressure force, which caused a positive response in at least one attempt. The threshold of pain sensitivity was compared on intact and damaged limbs on day 14 after ligation (pathology without treatment), as well as on the injured limb after 2 hours (peak of action) after the drugs administration. The test compound and the reference drug (ketorolac) were administered intragastrally (as gavage) once at doses of 0.5 and 3 mg/kg. Sciatic nerve ligation in animals caused the development of neuropathic pain syndrome, which manifested itself in behavioral reactions of the rat and lowering the threshold of pain sensitivity by an average of 44-48% (see Table 1). The analgesic effect of Compound 1 compared with ketorolac under the conditions of their intragastral administration on the model of neuropathic pain in rats (M±m, n=10, where n is the number of animals in the experiments) is shown in Table 1.

[2] = system: thermal tail flick test in rats; test: Model of thermal stimulation (tail-flick); type: in vivo; settings: n=10
From the text: The problem was solved by experimental study of the antinociceptive action of the test compound 1 on the model of NP in rats and on the model of pain with the participation of central mechanisms, in particular, thermal tail flick test in rats. Based on the available data on the positive response of constant pain to anticonvulsants in the acute and paroxysmal phase and considering structure 1, we performed an evaluation of the anticonvulsant action of the compound on models of pentamethylenetetrazol-induced convulsions and seizures caused by maximal electroshock (MES). We have taken into account the possible side reaction (ulcerogenic effect) of the compound in experimental animals, expressed in the formation of defects in the mucous membrane of the gastrointestinal tract or in provocation of already existing peptic ulcer relapses. The probability of ulcers formation of medicinal origin is especially high during administration of non-steroidal anti-inflammatory drugs in high doses and in combination with their long-term use in the form of tablets.
A more pronounced effect was after parenteral administration (see Table 2). Control: solvent (twin, distilled water, pH-corrector). Results of the study of Compound 1 and ketorolac analgesic effects on the model of thermal stimulation (tail-flick) as degree of pain sensitivity threshold increase in relation to the initial level (%), n=10, are given in Table 2.

[3] = according to the literature data for ketorolac; cited from earlier work
[4] = system: formalin test in mice; test: Formalin test (licking time of the injected paw); type: in vivo, white male non-linear mice; settings: 10.00 mg/kg intraperitoneally 40 min before formalin
[5] = system: carrageenan rat paw edema; test: Carrageenan rat paw edema; type: in vivo, male white rats; settings: 10.0 mg/kg intraperitoneally 40 min before carrageenan
From the text: Given the fact that Compound 1 affects not only the painful, but also the inflammatory phase, we undertook an in-depth study of its anti-inflammatory effect. The most common screening method of anti-inflammatory activity is the model of inflammatory edema of the rat hind paw, induced by the subplantar administration of various phlogogenic agents. Under the conditions of carrageenan administration, a sufficiently pronounced edema reaction is observed, which slowly develops and persists for a long time. The maximum size of edema is observed in 2-4 hours.
The anti-inflammatory properties of the test compounds were studied in the model of carrageenan rat paw edema. Male white rats weighing 150-180 g were used in the experiments. Before the administration of the experimental substances, the volumes of the rats' paws subsequently injected by phlogogen were measured. The test compounds and the reference drug—diclofenac-sodium, were administered intraperitoneally 40 minutes prior the inflammation induction. The control group of the rats received an equivalent amount of physiological solution in the emulsion with Tween-80. Acute aseptic inflammation was induced by a 1% aqueous solution of 0.1 ml)—carrageenan injection under plantar aponeurosis of the hind paw of animals of the experimental and control groups (see Trinus F. P. Nonsteroidal anti-inflammatory drugs/F. P. Trinus, N. A. Mohort, B. M. Klebanov//K., 1975, pp. 204-231., Winter C. A. Carrageenin—induced edema in hind paw of the rat as an assay for antiinflammatory drugs/C. A. Winter, E. A. Risley, G. V. Nuss//Proc. Soc. Exp. Biol. Med.—1962.—Vol. 111.—P. 544-547). The inflammatory reaction significance was evaluated after two and four hours after the phlogogen injection. Registration of edema size was carried out by mechanical measurement of foot volume in dynamics according to Zakharevsky A. S. (see Zaharevskiy A. S. The influence of some indole derivatives on the nervous system. Diss. cand. med. science/Zaharevskiy Aleksandr Stepanovich-Minsk.—1969.—78-80 p.). The edema extent was estimated according to the difference in volume between the swollen paw and the paw before inflammation induction. The anti-inflammatory efficacy of the test compounds was determined as the ability of the test compounds to suppress the inflammatory response in the experimental animals compared to the control animals and expressed as a percentage. The calculation was carried out according to the following formula:
The percentage of inflammation suppression=(ΔVκ−ΔV ? /ΔVκ)·100%,
where: ΔVκ—the average increase in the volume of the swollen paw in the control;
ΔV ? —the average increase in the volume of the swollen paw in animals injected by experimental substances.

[6] = system: pentylenetetrazole-induced convulsions; settings: literature data; interval in brackets; cited from earlier work
[7] = system: MES-induced seizures; settings: literature data; interval in brackets; cited from earlier work
[8] = system: pentylenetetrazole-induced convulsions; test: Pentylenetetrazole-induced seizures; type: in vivo, non-linear male mice; settings: mice; subcutaneously; dose-effect relationship of the seizure agent
From the text: In many cases, the presence of anticonvulsant (antiepileptic) effect of the compounds correlates with analgesic properties on corresponding models of neuralgia. As a general step is a primary screening of new anticonvulsant compounds on rodents with the help of pentylenetetrazole test and MES (maximal electroshock seizures) as they have a qualitative difference in development and manifestations of seizures. It is believed that the compound ability to prevent the MES-induced seizures is connected with impulse spread inhibition throughout the central nervous system. It is believed that the ability to prevent the MES-induced seizures development indicates the potential efficacy of the compound in the preventing propagation of a pulse along the neural tissue (see Tompson E. Medicines. Bioscreening/Under the editorship of A. V. Stefanova.-K.: Avitsenna, 1998.—250 p.).
The experiments were performed on non-linear male mice weighing 19-29 g. Pentylenetetrazole was administered subcutaneously in the cervical region of the back. […]
For MES-induced seizures experimental animals were exposed to electric stimulation through the corneal electrodes (50 Hz, 50 mA for mice during 0.2 s). The number of animals with the maximum tonic extension of the hind limbs, which occurs in almost 100% of the animals in the control group, was calculated. […]

For `O=C(c1ccccc1)c1ccc2n1CCC2C(=O)O` (stereo not drawn) [Ketorolac, ketorolac], the “Changes in the threshold of pain perception, regarding healthy limb” value ([1]; 0.5 mg/kg group) was −47.3 ± 3.9%, the “Threshold of pain sensitivity, damaged limb” value ([1]; 0.5 mg/kg group) was 287.9 ± 19.85 g/mm^2 and the “Threshold of pain sensitivity, healthy limb” value ([1]; 0.5 mg/kg group) was 550.0 ± 19.0 g/mm^2. The “Pain perception threshold changes, regarding pathology before administration of compounds” value ([1]; 0.5 mg/kg intragastrally once) was “+24.6 ± 5.2%”, the “Pain perception threshold changes, regarding pathology before administration of compounds” value ([1]; 0.5 mg/kg intragastrally once, listed as ketorolac) was “+24.6%” and the “Threshold of pain sensitivity 2 hours after compounds administration” value ([1]; 0.5 mg/kg intragastrally once) was 355.0 ± 19.5 g/mm^2. For the same compound, the “Changes in the threshold of pain perception, regarding healthy limb” value ([1]; 3 mg/kg group) was −45.7 ± 3.5%, the “Threshold of pain sensitivity, damaged limb” value ([1]; 3 mg/kg group) was 296.4 ± 19.6 g/mm^2 and the “Threshold of pain sensitivity, healthy limb” value ([1]; 3 mg/kg group) was 547.1 ± 15.1 g/mm^2. The “Pain perception threshold changes, regarding pathology before administration of compounds” value ([1]; 3 mg/kg intragastrally once) was “+70.1 ± 6.2%”, the “Pain perception threshold changes, regarding pathology before administration of compounds” value ([1]; 3 mg/kg intragastrally once, listed as ketorolac) was “+70.1%” and the “Threshold of pain sensitivity 2 hours after compounds administration” value ([1]; 3 mg/kg intragastrally once) was 501.4 ± 34.9 g/mm^2. For the same compound, the “Degree of pain sensitivity threshold increase in relation to the initial level” value ([2]; 0.5 mg/kg orally, 1 hour) was “+7.5%”, the “Degree of pain sensitivity threshold increase in relation to the initial level” value ([2]; 0.5 mg/kg orally, 2 hours) was “+14.6%” and the “Degree of pain sensitivity threshold increase in relation to the initial level” value ([2]; 0.5 mg/kg orally, 4 hours) was “+28.6%”. For the same compound, the “Degree of pain sensitivity threshold increase in relation to the initial level” value ([2]; 0.5 mg/kg orally, 6 hours) was “+12.1%”, the “Degree of pain sensitivity threshold increase in relation to the initial level” value ([2]; 3 mg/kg orally, 1 hour) was “+43.4%” and the “Degree of pain sensitivity threshold increase in relation to the initial level” value ([2]; 3 mg/kg orally, 2 hours) was “+75.7%”. For the same compound, the “Degree of pain sensitivity threshold increase in relation to the initial level” value ([2]; 3 mg/kg orally, 4 hours) was “+65.7%”, the “Degree of pain sensitivity threshold increase in relation to the initial level” value ([2]; 3 mg/kg orally, 6 hours) was “+28.1%” and the “ED50 (analgesic effect)” value [3] was 3 mg/kg.
For `O=C(O)Cc1ccccc1Nc1c(Cl)cccc1Cl` [Diclofenac-sodium, diclofenac-sodium, reference compound], the “I phase, % effect (decrease in the time of licking of the paw)” value ([4]; phase 0-5 min) was 51.00 ± 11.64 %, the “II phase, effect (decrease in the time of licking of the paw)” value ([4]; phase 15-40 min) was 53.60 ± 11.02 and the “Inhibition of edema in 2 hours (%)” value [5] was 43.0 ± 7.0 %. For the same compound, the “Inhibition of edema in 4 hours (%)” value [5] was 57.10 ± 8.3 %.
In the case of `CC(C)C[C@H](CN)CC(=O)O` [Pregabalin, pregabalin], the “Anticonvulsive activity (ED50), Pentylenetetrazole” value [6] is listed as 31 (16-62) mg/kg and the “Anticonvulsive activity (ED50), MES” value [7] is listed as 73 (57-93) mg/kg.
In the case of `C1CCc2nnnn2CC1` [pentylenetetrazole, reference compound], the “ED95 of pentylenetetrazole (seizure agent)” value [8] is reported as 120 mg/kg.
In the case of `NCC1(CC(=O)O)CCCCC1` [Gabapentin, gabapentin], the “Anticonvulsive activity (ED50), Pentylenetetrazole” value [6] is given as 32 (50-200) mg/kg and the “Anticonvulsive activity (ED50), MES” value [7] is given as 19 (16-24) mg/kg.

— patent publication US11304956B2, “Use of 7-bromo-5-(O-chlorophenyl)-3-propoxy-1,2-dihydro-3H-1,4-benzodiazepin-2-one for inhibition of neuropathic pain and seizures of different etiology” (priority 2016, dated 2022)
